Experimental data as given in patent US8895738B2, “Mesoionic pyrido [1, 2-A] pyrimidine pesticides” (E I du Pont de Nemours and Company, priority 2010, dated 2014).
Where a name gives a salt, the structure may show the parent alone.

Legend:
Type in all cases: in vivo
[1] = system: rice brown planthopper (Nilaparvata lugens); assay: Test H: control of rice brown planthopper on rice plant; conditions: 120 h, assessed after 5 days, read-out: control efficacy: mortality
Method: For evaluating control of rice brown planthopper (Nilaparvata lugens) through contact and/or systemic means, the test unit consisted of a plastic pot containing a 13-cm-tall rice plant covered with steel wire mesh (50 mesh) supported by a wire frame. A small amount of sand was added to form a good seal between the bottom of the wire mesh, the soil surface and the top edge of the plastic pot.
Test compounds were formulated and sprayed at 10, 2 and/or 0.4 ppm, and the tests were replicated three times in a manner similar to the one described for Test A. After spraying, the test units were allowed to dry for 2 h before they were post-infested with 10 brown planthoppers (3rd instar nymphs, 7-9 days post-hatch). After 5 days, each test unit was visually assessed for insect mortality.

[2] = system: Rice plants (indica cultivar ‘JAYA’); assay: Test K: vigor, height and panicle length of rice crop outdoors, Gujarat; conditions: for crop vigor (visual rating, 0 to 200% scale, untreated = 100%): 32 days after application, Nilaparvata lugens level moderate; for average height of rice plants / average panicle length of rice plants: 45 days after application; for average height of rice plants: untreated 0.78 m; for average panicle length of rice plants: untreated 22.4 cm
Method: (§1) To evaluate the effect of application of a compound of the invention on the vigor of rice crops grown under outdoor conditions, Tests 1 through 0 were conducted. “a.i.” refers to the amount of active ingredient applied.
Rice plants (indica cultivar ‘JAYA’) were transplanted into flooded 6 m×5 m test plots of clay loam soil under shade cloth in the State of Gujarat, India during the hot season before monsoon arrival, and grown using local agronomic practices. Accordingly, after 44 days from transplanting, all rice plants in this test were sprayed with an aqueous mixture containing 30 g a.i./ha of cypermethrin and 100 g a.i./ha of picoxystrobin. After 53 days from transplanting, aqueous mixtures of Compound 3 were applied to the foliage of the rice plants at 6.25, 12.5, 25 or 50 g a.i./ha in a spray volume of 500 L/ha using a backpack sprayer. Plots of unsprayed rice plants were used as controls. Each treatment and control was replicated three times, and the plots were arranged in a randomized complete block design. At the time of application of Compound 3, the pest level of rice brown planthopper (Nilaparvata lugens) was moderate, but still above the level considered economically significant.
At 45 days after application, the height and panicle length of the rice plants were measured. Plant height was determined by measuring length from vertically extended longest leaf tip to soil surface. Panicle length was measured similarly. The average height of rice plants treated with 6.25, 12.5, 25 and 50 g a.i./ha of Compound 3 was 0.94, 0.92, 0.92 and 0.99 m, respectively, compared to 0.78 m for untreated control plants. The average panicle length of rice plants treated with 6.25, 12.5, 25 and 50 g a.i./ha of Compound 3 was 23.8, 23.7, 24.9 and 24.6 cm, respectively, compared to 22.4 cm for untreated control plants.

[3] = system: Rice plants (indica cultivar ‘Swarna’); assay: Test N: harvest yield of rice crop outdoors, two foliar applications, Bargarh; conditions: applied twice, Nilaparvata lugens level high, controls 620 kg/ha
Method: as §1
Rice plants (indica cultivar ‘Swarna’) were transplanted into flooded 4 m×3 m test plots of clay loam soil in the Bargarh district, Orissa, India, during the rainy season, and grown using local agronomic practices. After 70 days, aqueous mixtures of Compound 3 were applied to the foliage of the rice plants at 12.5, 25 or 50 g a.i./ha in a spray volume of 400 L/ha using a backpack sprayer. Plots of unsprayed rice plants were used as controls. Each treatment and control was replicated three times, and the plots were arranged in a randomized complete block design. At the time of application of Compound 3, the pest level of rice brown planthopper (Nilaparvata lugens) was high, i.e. much above the level considered economically significant. 14 days after the first treatment, the foliar applications of aqueous mixtures of Compound 3 were repeated at the same application rates in a spray volume of 400 L/ha.
Harvest yields from the crops treated with 12.5, 25 and 50 g a.i./ha of Compound 3 were 3190, 3660 and 4220 kg/ha, respectively, compared to 620 kg/ha from the untreated controls.

[4] = system: corn planthopper (Peregrinus maidis); assay: Test D: control of corn planthopper on maize plant, contact and/or systemic; conditions: 144 h, assessed after 6 days, read-out: control efficacy: mortality
Method: For evaluating control of corn planthopper (Peregrinus maidis) through contact and/or systemic means, the test unit consisted of a small open container with a 3-4-day-old maize plant (spike) inside. White sand was added to the top of the soil prior to application. Test compounds were formulated and sprayed at 250, 50, 10 and/or 2 ppm, and replicated three times as described for Test A. After spraying, the test units were allowed to dry for 1 h before they were post-infested with ˜15-20 nymphs (18 to 21 day old) by sprinkling them onto the sand with a salt shaker. A black, screened cap was placed on the top of each test unit, and the test units were held for 6 days in a growth chamber at 22-24° C. and 50-70% relative humidity. Each test unit was then visually assessed for insect mortality.

[5] = system: cotton melon aphid (Aphis gossypii); assay: Test C: control of cotton melon aphid on cotton plant, contact and/or systemic
From the text: For evaluating control of cotton melon aphid (Aphis gossypii) through contact and/or systemic means, the test unit consisted of a small open container with a 6-7-day-old cotton plant inside. This was pre-infested with 30-40 insects on a piece of leaf according to the cut-leaf method described for Test B, and the soil of the test unit was covered with a layer of sand.
Test compounds were formulated and sprayed at 250 and/or 50 ppm as described for Test B. The applications were replicated three times. After spraying, the test units were maintained in a growth chamber and then visually rated as described for […].

[6] = system: potato leafhopper (Empoasca fabae); assay: Test E: control of potato leafhopper on Soleil bean plant, contact and/or systemic; conditions: 144 h, assessed after 6 days, read-out: control efficacy: mortality
Method: For evaluating control of potato leafhopper (Empoasca fabae) through contact and/or systemic means, the test unit consisted of a small open container with a 5-6-day-old Soleil bean plant (primary leaves emerged) inside. White sand was added to the top of the soil and one of the primary leaves was excised prior to application.
Test compounds were formulated and sprayed at 250, 50, 10 and/or 2 ppm, and the tests were replicated three times as described for Test A. After spraying, the test units were allowed to dry for 1 h before they were post-infested with 5 potato leafhoppers (18-21-day-old adults). A black, screened cap was placed on the top of each test unit, and the test units were held for 6 days in a growth chamber at 24° C. and 70% relative humidity. Each test unit was then visually assessed for insect mortality.

O=c1c(-c2cccc(C(F)(F)F)c2)c([O-])[n+](Cc2cncnc2)c2ccccn12 [Compound 3, 2-hydroxy-4-oxo-1-(5-pyrimidinylmethyl)-3-[3-(trifluoromethyl)phenyl]-4H-pyrido[1,2-a]pyrimidinium inner salt]
mortality at 2 ppm ([1]; sprayed at 2 ppm): ≥ 80% | mortality at 10 ppm ([1]; sprayed at 10 ppm): ≥ 80% | crop vigor (visual rating, 0 to 200% scale, untreated = 100%) ([2]; 6.25 g a.i./ha foliar): 115% | average height of rice plants ([2]; 6.25 g a.i./ha): 0.94 m | average panicle length of rice plants ([2]; 6.25 g a.i./ha): 23.8 cm | crop vigor (visual rating, 0 to 200% scale, untreated = 100%) ([2]; 12.5 g a.i./ha foliar): 113% | average height of rice plants ([2]; 12.5 g a.i./ha): 0.92 m | average panicle length of rice plants ([2]; 12.5 g a.i./ha): 23.7 cm | crop vigor (visual rating, 0 to 200% scale, untreated = 100%) ([2]; 25 g a.i./ha foliar): 122% | average height of rice plants ([2]; 25 g a.i./ha): 0.92 m | average panicle length of rice plants ([2]; 25 g a.i./ha): 24.9 cm | crop vigor (visual rating, 0 to 200% scale, untreated = 100%) ([2]; 50 g a.i./ha foliar): 115% | average height of rice plants ([2]; 50 g a.i./ha): 0.99 m | average panicle length of rice plants ([2]; 50 g a.i./ha): 24.6 cm | harvest yield ([3]; 12.5 g a.i./ha foliar): 3190 kg/ha | harvest yield ([3]; 25 g a.i./ha foliar): 3660 kg/ha | harvest yield ([3]; 50 g a.i./ha foliar): 4220 kg/ha | mortality at 2 ppm ([4]; sprayed at 2 ppm): ≥ 80% | mortality at 10 ppm ([4]; sprayed at 10 ppm): ≥ 80% | mortality at 50 ppm ([4]; sprayed at 50 ppm): ≥ 80% | mortality at 250 ppm ([4]; sprayed at 250 ppm): ≥ 80% | mortality at 50 ppm ([5]; sprayed at 50 ppm): ≥ 80% | mortality at 250 ppm ([5]; sprayed at 250 ppm): ≥ 80% | mortality at 10 ppm ([6]; sprayed at 10 ppm): ≥ 80% | mortality at 50 ppm ([6]; sprayed at 50 ppm): ≥ 80% | mortality at 250 ppm ([6]; sprayed at 250 ppm): ≥ 80%
